Measured values from the supplement of paper PMC10307832.

What was measured:
Experiment in all cases: relative viability (nuclei count vs DMSO), 5 days (fraction); higher = more cells survive
[1] = compound: CC1=CC(=NN1)NC2=CC(=NC(=N2)/C=C/C3=CC=CC=C3)N4CCN(CC4)C + C[C@]1(O)C[C@@H](c2nc(-c3ccc4ccc(-c5ccccc5)nc4c3)c3c(N)nccn32)C1 [Linsitinib] (partner 1 µM)
Summary of the method: (§1)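 Lung cancer cell lines were seeded in 1536-well plates and dosed by pin tool the next day, with either a single drug or a fixed anchor-drug dose combined with five library-drug doses (not always all listed) spaced in √10 steps. Five days later, one step fixed the cells and stained their nuclei (final 0.05% Triton X-100, 1% formaldehyde, 1 ug/ml Hoechst), and nuclei were counted on 4× images. Relative viability is the nuclei count in treated wells divided by the count in vehicle wells, and each value is the median of duplicate plates.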

Bortezomib + Vorinostat = compound: CC(C)C[C@H](NC(=O)[C@H](Cc1ccccc1)NC(=O)c1cnccn1)B(O)O [Bortezomib] + O=C(CCCCCCC(=O)Nc1ccccc1)NO [Vorinostat] (partner 1 µM)
Summary of the method: as §1

[2] = compound: CC1=CC(=NN1)NC2=CC(=NC(=N2)/C=C/C3=CC=CC=C3)N4CCN(CC4)C + CS(=O)(=O)CCNCc1ccc(-c2ccc3ncnc(Nc4ccc(OCc5cccc(F)c5)c(Cl)c4)c3c2)o1 [Lapatinib] (partner 2 µM)
Summary of the method: as §1

Obatoclax + Phenformin = compound: COC1=CC(c2cc3ccccc3[nH]2)=N/C1=C\c1[nH]c(C)cc1C [Obatoclax] + N=C(N)NC(=N)NCCc1ccccc1 [Phenformin] (partner 250 µM)
Summary of the method: as §1

Cell Line	relative viability ([1]; first compound 0.08 µM)	relative viability ([1]; first compound 0.253 µM)	relative viability ([1]; first compound 0.8 µM)	relative viability ([1]; first compound 2.53 µM)	relative viability ([1]; first compound 8 µM)	relative viability (Bortezomib + Vorinostat; first compound 0.0002 µM)	relative viability (Bortezomib + Vorinostat; first compound 0.000632 µM)	relative viability (Bortezomib + Vorinostat; first compound 0.002 µM)	relative viability (Bortezomib + Vorinostat; first compound 0.006325 µM)	relative viability (Bortezomib + Vorinostat; first compound 0.02 µM)	relative viability ([2]; first compound 0.08 µM)	relative viability ([2]; first compound 0.253 µM)	relative viability ([2]; first compound 0.8 µM)	relative viability ([2]; first compound 2.53 µM)	relative viability ([2]; first compound 8 µM)	relative viability (Obatoclax + Phenformin; first compound 0.01 µM)	relative viability (Obatoclax + Phenformin; first compound 0.03162 µM)	relative viability (Obatoclax + Phenformin; first compound 0.1 µM)	relative viability (Obatoclax + Phenformin; first compound 0.3162 µM)	relative viability (Obatoclax + Phenformin; first compound 1 µM)
EPLC-272H	1.11	1.32	1.06	0.675	0.367	0.333	0.4	0.0774	0.0603	0.0567	0.893	0.99	0.868	0.462	0.157	0.255	0.277	0.351	0.225	0.158
LXF-289	0.932	1.01	0.914	0.447	0.36	0.732	0.734	0.896	0.0875	0.0888	0.918	0.969	0.839	0.487	0.574	0.484	0.53	0.496	0.505	0.458
COR-L23	0.868	0.809	0.839	0.173	0.0756	0.474	0.446	0.192	0.0554	0.0587	0.98	1.51	1.1	0.22	0.0755	0.443	0.479	0.425	0.328	0.216
RERF-LC-KJ	0.817	0.863	0.792	0.604	0.216	0.661	0.726	0.624	0.463	0.219	0.878	0.875	0.839	0.716	0.292	0.37	0.441	0.459	0.45	0.434
NCI-H1755	1.05	1.04	0.993	0.799	0.267	0.813	0.644	0.748	0.245	0.208	1.06	1.12	1.01	0.535	0.143	0.622	0.6	0.492	0.634	0.541
PC-14	0.906	1.01	0.892	0.77	0.107	0.778	0.717	0.365	0.0298	0.0377	0.334	0.374	0.278	0.248	0.0886	0.551	0.612	0.308	0.425	0.281
NCI-H322M	0.89	0.965	0.895	0.515	0.323	0.841	0.696	0.826	0.393	0.491	0.56	0.67	0.507	0.321	0.208	0.855	0.603		0.824	0.62
NCI-H1666	0.83	0.949	0.747	0.77	0.288	1.03	1.04	1.11	0.539	0.5	0.738	0.549	0.669	0.416	0.131	0.576	0.542	0.571	0.494	0.421
A-427	1.2	1.16	1.09	0.87	0.305	0.845	0.878	0.833	0.185	0.153	1.22	1.05	0.957	0.542	0.513	0.339	0.342	0.32	0.287	0.165
NCI-H358	0.733	0.736	0.331	0.14	0.11	0.699	0.71	0.405	0.0638	0.0768	0.511	0.471	0.335	0.147	0.134	0.309	0.365	0.432	0.339	0.217
NCI-H1651	0.904	1.2	0.855	0.607	0.144	0.568	0.571	0.534	0.587	0.134	0.924	0.941	0.803	0.313	0.123	0.384	0.324	0.386	0.252	0.184
NCI-H520	1.01	0.995	0.664	0.233	0.122	0.825	0.713	0.177	0.15	0.138	0.831	0.887	0.573	0.182	0.0952	0.677	0.562	0.589	0.532	0.455
201T	1.02	1.07	1	0.897	0.819	0.964	0.936	0.993	0.916	0.328	1.02	1.07	1.04	0.946	0.915	0.434	0.457	0.43	0.399	0.463
NCI-H460	0.668	0.869	0.539	0.0075	0.0036	0.668	0.678	0.857	0.0257	0.0172	0.909	0.952	0.943	0.0124	0.0122	0.448	0.53	0.441	0.25	0.112
NCI-H596	0.941	1.18	1.16	0.757	0.409	0.506	0.614	0.365	0.219	0.173	0.976	1.09	0.912	0.505	0.286	0.768	0.764	0.741	0.711	0.583
HARA	1.07	0.899	1.03	0.139	0.0705	0.512	0.672	0.175	0.0466	0.0668	0.776	0.874	0.611	0.163	0.158	0.427	0.432	0.463	0.455	0.357
